Measurements published in ChEMBL document CHEMBL4627339, “Structural motives controlling the binding affinity of 9,10-bis(methylpyridinium)anthracenes towards DNA” (Bioorg Med Chem, 2020).
Calls of active or inactive are those of the source. No cut-off for these calls is given here.

Columns and labels:
Type in all cases: nucleic-acid assay
Calf thymus DNA [1] = assay: Binding affinity to calf thymus DNA assessed as bathochromic shift in maximum absorption at 50 uM by UV-Vis absorption spectroscopic method; settings: Bos taurus
Calf thymus DNA [2] = assay: Binding affinity to calf thymus DNA assessed as groove binding by measuring induced circular dichroism with negative signs around 370-380 nm by CD spectroscopy; settings: Bos taurus
[3] = system: Poly(dA-dT)oligonucleotide; assay: Binding affinity to poly(dA:dT) dsDNA (unknown origin) assessed as increase in fluorescence intensity by fluorescence spectroscopy
Calf thymus DNA [4] = assay: Binding affinity to calf thymus DNA assessed as groove binding by measuring blue-shift in maximum emission intensity of compound by fluorescence spectroscopy; settings: Bos taurus
Calf thymus DNA [5] = assay: Binding affinity to calf thymus DNA assessed as hypochromism at 50 uM by UV-Vis spectroscopy relative to control; settings: Bos taurus
Calf thymus DNA [6] = assay: Binding affinity to calf thymus DNA assessed as binding constant by UV-Vis absorption spectroscopic method; settings: Bos taurus
Calf thymus DNA [7] = assay: Binding affinity to calf thymus DNA assessed as DNA intercalation by measuring helix stabilization by DNA melting studies based absorbance analysis; settings: Bos taurus
Calf thymus DNA [8] = assay: Binding affinity to calf thymus DNA assessed as minor groove binding by measuring rise in absorbance at melting temperature between 76 and 77 degC by DNA melting studies based absorbance analysis; settings: Bos taurus
[9] = system: Poly(dG-dC)oligonucleotide; assay: Binding affinity to poly(dG:dC) dsDNA (unknown origin) assessed as increase in fluorescence intensity by fluorescence spectroscopy
[10] = system: Poly(dA-dT)oligonucleotide; assay: Binding affinity to poly(dA:dT) dsDNA (unknown origin) assessed as increase in intensity with one ligand binding for two base pairs by UV-Vis spectroscopy
[11] = system: Poly(dG-dC)oligonucleotide; assay: Binding affinity to poly(dG:dC) dsDNA (unknown origin) assessed as red shift in absorption maxima by UV-Vis spectroscopy
[12] = system: Poly(dA-dT)oligonucleotide; assay: Binding affinity to poly(dA:dT) dsDNA (unknown origin) assessed as binding constant by fluorescence spectroscopy
[13] = system: Poly(dA-dT)oligonucleotide; assay: Binding affinity to poly(dA:dT) dsDNA (unknown origin) assessed as red shift in absorption maxima by UV-Vis spectroscopy
Calf thymus DNA [14] = assay: Binding affinity to calf thymus DNA assessed as groove binding by measuring spectral changes up to compound:base pair concentration ratio of 1:39 in presence of 300 mM NaCl by UV-Vis spectroscopic method; settings: Bos taurus
Calf thymus DNA [15] = assay: Binding affinity to calf thymus DNA assessed as loss of vibronic fine structure at 50 uM by UV-Vis absorption spectroscopic method; settings: Bos taurus

| SMILES | Activity (Calf thymus DNA [1]) | Activity (Calf thymus DNA [2]) | Activity [3] | Activity (Calf thymus DNA [4]) | Activity (Calf thymus DNA [5]) | KB (Calf thymus DNA [6]) | Activity (Calf thymus DNA [7]) | Activity (Calf thymus DNA [8]) | Activity [9] | Activity [10] | Activity [11] | K [12] | Activity [13] | Activity (Calf thymus DNA [14]) | Activity (Calf thymus DNA [15]) |
| --- | --- | --- | --- | --- | --- | --- | --- | --- | --- | --- | --- | --- | --- | --- | --- |
| CCc1ccc2c(-c3cc[n+](C)cc3)c3ccccc3c(-c3cc[n+](C)cc3)c2c1 | Active | Active | Active | Active | 55% | 1.2 ×10⁴ /M | inactive | Active | – | – | – | – | – | – | – |
| Cc1ccc2c(-c3cc[n+](C)cc3)c3ccccc3c(-c3cc[n+](C)cc3)c2c1 | Active | Active | Active | Active | 41% | 6.2 ×10⁴ /M | inactive | Active | – | – | – | 1 ×10⁵ /M | – | – | – |
| C[n+]1ccc(-c2c3ccccc3c(-c3cc[n+](C)cc3)c3cc(C(C)(C)C)ccc23)cc1 | Active | inactive | Active | Active | 66% | 7.3 ×10³ /M | inactive | Active | – | – | – | – | – | – | – |
| C[n+]1cc(-c2c3ccccc3c(-c3cc4ccccc4[n+](C)c3)c3ccccc23)cc2ccccc21 | Active | Active | Active | Active | 56% | 2.8 ×10⁵ /M | inactive | Active | – | – | – | – | – | – | – |

Continued, values first:

| Activity (Calf thymus DNA [1]) | Activity (Calf thymus DNA [2]) | Activity [3] | Activity (Calf thymus DNA [4]) | Activity (Calf thymus DNA [5]) | KB (Calf thymus DNA [6]) | Activity (Calf thymus DNA [7]) | Activity (Calf thymus DNA [8]) | Activity [9] | Activity [10] | Activity [11] | K [12] | Activity [13] | Activity (Calf thymus DNA [14]) | Activity (Calf thymus DNA [15]) | SMILES |
| --- | --- | --- | --- | --- | --- | --- | --- | --- | --- | --- | --- | --- | --- | --- | --- |
| inactive | inactive | inactive | inactive | – | – | – | – | – | – | – | – | – | – | – | C[n+]1ccccc1-c1c2ccccc2c(-c2cccc[n+]2C)c2ccccc12 |
| inactive | – | – | – | – | – | – | – | – | – | – | – | – | – | – | c1ccc2c(-c3ccncc3)c3ccccc3c(-c3ccncc3)c2c1 |
| Active | Active | Active | Active | 74% | 8.4 ×10⁴ /M | inactive | Active | inactive | Active | inactive | 1.6 ×10⁵ /M | Active | Active | Active | C[n+]1ccc(-c2c3ccccc3c(-c3cc[n+](C)cc3)c3ccccc23)cc1 |
| Active | Active | Active | Active | 41% | 1.8 ×10⁵ /M | inactive | Active | – | – | – | – | – | – | – | C[n+]1cccc(-c2c3ccccc3c(-c3ccc[n+](C)c3)c3ccccc23)c1 |
